Results from ChEMBL document CHEMBL2331465, “The discovery of novel isoflavone pan peroxisome proliferator-activated receptor agonists” (Bioorg Med Chem, 2013).
One block for each compound: values may come before it. Active and inactive are the calls of the source. No cut-off for these calls is given here.

Tests used:
[1] = Cytotoxicity against human HEK293 cells assessed as cell viability at 10 uM measured after 48 hrs by MTS assay relative to vehicle control; format: cell-based; details: read-out: Activity
[2] = molecular target: T1, Peroxisome proliferator-activated receptor delta (Homo sapiens, UniProt Q03181); experiment: Agonist activity at human PPARdelta expressed in HEK293 cells cotransfected with PPREx4-TK-luc assessed as activation of luciferase activity measured after 48 hrs by transactivation assay; format: cell-based
T1 sequence (Q03181 whole entry): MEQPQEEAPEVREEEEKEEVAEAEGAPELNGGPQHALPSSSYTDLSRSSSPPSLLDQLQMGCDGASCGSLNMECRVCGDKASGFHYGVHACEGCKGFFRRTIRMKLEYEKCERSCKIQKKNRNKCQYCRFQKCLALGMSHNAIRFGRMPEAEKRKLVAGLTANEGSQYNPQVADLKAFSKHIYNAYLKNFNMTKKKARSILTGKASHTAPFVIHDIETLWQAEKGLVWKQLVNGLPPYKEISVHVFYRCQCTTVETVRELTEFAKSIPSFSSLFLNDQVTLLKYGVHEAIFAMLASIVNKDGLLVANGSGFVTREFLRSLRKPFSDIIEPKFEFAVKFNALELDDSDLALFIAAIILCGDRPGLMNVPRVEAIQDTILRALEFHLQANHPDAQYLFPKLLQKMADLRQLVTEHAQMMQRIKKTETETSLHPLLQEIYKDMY

[3] = molecular target: T2, Peroxisome proliferator-activated receptor alpha (Homo sapiens, UniProt Q07869); experiment: Agonist activity at human PPARalpha expressed in HEK293 cells cotransfected with PPREx4-TK-luc assessed as activation of luciferase activity measured after 48 hrs by transactivation assay; format: cell-based
T2 sequence (Q07869 whole entry): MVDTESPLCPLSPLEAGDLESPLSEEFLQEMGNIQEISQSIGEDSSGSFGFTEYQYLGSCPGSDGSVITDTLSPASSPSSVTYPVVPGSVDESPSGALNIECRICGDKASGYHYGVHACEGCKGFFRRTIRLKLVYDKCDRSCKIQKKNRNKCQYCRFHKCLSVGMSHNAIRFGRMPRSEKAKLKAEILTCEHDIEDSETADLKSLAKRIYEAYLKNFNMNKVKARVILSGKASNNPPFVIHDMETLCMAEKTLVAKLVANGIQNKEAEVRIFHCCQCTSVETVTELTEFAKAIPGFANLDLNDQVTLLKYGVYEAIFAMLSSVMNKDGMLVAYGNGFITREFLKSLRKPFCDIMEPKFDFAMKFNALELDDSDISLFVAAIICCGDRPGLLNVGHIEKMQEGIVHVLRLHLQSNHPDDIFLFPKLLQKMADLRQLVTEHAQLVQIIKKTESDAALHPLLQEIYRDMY

[4] = Cytotoxicity against human HEK293 cells assessed as cell viability at 100 uM measured after 48 hrs by MTS assay relative to vehicle control; format: cell-based; details: read-out: Activity
[5] = molecular target: T3, Peroxisome proliferator-activated receptor gamma (Homo sapiens, UniProt P37231); experiment: Agonist activity at human PPARgamma expressed in HEK293 cells cotransfected with PPREx4-TK-luc assessed as activation of luciferase activity measured after 48 hrs by transactivation assay; format: cell-based
T3 sequence (P37231 whole entry): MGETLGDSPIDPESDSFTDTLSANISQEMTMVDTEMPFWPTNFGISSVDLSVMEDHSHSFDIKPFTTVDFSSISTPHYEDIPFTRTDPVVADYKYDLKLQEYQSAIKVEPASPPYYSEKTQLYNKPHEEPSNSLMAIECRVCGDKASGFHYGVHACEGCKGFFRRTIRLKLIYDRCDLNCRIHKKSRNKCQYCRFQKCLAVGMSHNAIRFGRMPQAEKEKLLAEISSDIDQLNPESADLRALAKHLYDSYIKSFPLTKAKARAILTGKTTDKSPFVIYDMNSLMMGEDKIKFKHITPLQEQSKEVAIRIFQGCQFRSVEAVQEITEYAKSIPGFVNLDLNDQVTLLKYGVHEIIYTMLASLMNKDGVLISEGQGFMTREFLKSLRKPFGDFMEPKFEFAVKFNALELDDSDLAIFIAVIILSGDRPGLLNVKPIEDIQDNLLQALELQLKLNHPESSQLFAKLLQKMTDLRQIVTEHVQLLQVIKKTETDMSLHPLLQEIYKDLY

Rattus norvegicus [6] = experiment: Antidiabetic activity against Zucker diabetic fatty rat assessed as blood glucose level at 3 mg/kg after 30 mins (reference value: 270 mg/dL); format: functional
Rattus norvegicus [7] = experiment: Antimetabolic syndrome activity in Zucker […] rat assessed as inhibition of fatty liver disease in measured as liver mass at 3 mg/kg (reference value: 8.6 g); format: functional
Rattus norvegicus [8] = experiment: Antimetabolic syndrome activity in Zucker diabetic fatty rat assessed as inhibition of fatty liver disease in measured as liver mass at 3 mg/kg (reference value: 23.9 g); format: functional
Rattus norvegicus [9] = experiment: Antidiabetic activity against Zucker diabetic fatty rat assessed as blood glucose level at 3 mg/kg measured after 2 hrs of glucose intake by oral glucose tolerance test (reference value: 185 mg/dL); format: functional
Rattus norvegicus [10] = experiment: Antidiabetic activity against Zucker diabetic fatty rat assessed as blood glucose level at 3 mg/kg (reference value: 124 mg/dL); format: functional
Rattus norvegicus [11] = experiment: Reduction in Zucker diabetic fatty rat body weight gain at 3 mg/kg/day measured after 6 weeks (reference value: 103 g); format: functional
Rattus norvegicus [12] = experiment: Reduction in Zucker diabetic fatty rat body weight gain at 3 mg/kg/day measured after 3 weeks; format: functional, organism-based

EC50 [2]: 24.4 µM
EC50 [3]: 23.1 µM
SMILES: O=c1c(-c2ccc(F)cc2)coc2cc(O)ccc12
viability at 48 h, 10 µM [1]: 78%

EC50 [2]: 12.4 µM
EC50 [3]: 33.1 µM
SMILES: COc1cccc(-c2coc3cc(O)ccc3c2=O)c1
Activity (Rattus norvegicus [6]): 247 mg/dL
Activity (Rattus norvegicus [7]): 8.3 g
Activity (Rattus norvegicus [8]): 19.7 g
Activity (Rattus norvegicus [9]): 154 mg/dL
Activity (Rattus norvegicus [10]): 113 mg/dL
Activity (Rattus norvegicus [11]): 94 g
Activity (Rattus norvegicus [12]): Active
viability at 48 h, 100 µM [4]: 74%
viability at 48 h, 10 µM [1]: > 90%

Further lines, the compound ahead of its results:

SMILES: COc1cc(OC)cc(-c2coc3cc(O)ccc3c2=O)c1
viability at 48 h, 10 µM [1]: 80%
EC50 [2]: 17.2 µM

SMILES: O=c1c(-c2ccc3c(c2)OCO3)coc2cc(O)ccc12 [PSEUDOBAPTOGENIN]
viability at 48 h, 10 µM [1]: > 90%
EC50 [2]: 22.3 µM

SMILES: CC(C)(Oc1ccc(CCNC(=O)c2ccc(Cl)cc2)cc1)C(=O)O [BEZAFIBRATE]
viability at 48 h, 100 µM [4]: 73.7%
viability at 48 h, 10 µM [1]: 76%
EC50 [5]: 70.4 µM
